In patent US10597388B2, “Pyridazinone herbicides” (FMC CORPORATION, priority 2014, dated 2020):

Legend:
Format in all cases: in vivo
[1] = system: barnyardgrass (Echinochloa crus-galli); experiment: Test A greenhouse herbicide test, pre- and postemergence
Summary of the method: (§1)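 Visual injury ratings, 0 (no effect) to 100 (complete control), versus untreated plants after roughly 10 d in a greenhouse. Compounds, formulated in a surfactant-containing non-phytotoxic solvent, were sprayed on loam–sand soil after sowing (pre) or on one- to two-leaf plants 2–10 cm tall (post).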

kochia (Kochia scoparia) [2] = experiment: as above
Summary of the method: as §1

[3] = system: ragweed (common ragweed, Ambrosia elatior); experiment: as above
Summary of the method: as §1

[4] = system: pigweed (Amaranthus retroflexus); experiment: as above
Summary of the method: as §1

kochia (Kochia scoparia) [5] = experiment: Test C greenhouse herbicide test, postemergence
Summary of the method: (§2)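 Test chemicals were applied postemergence to greenhouse plants at the 1- to 4-leaf stage (2–18 cm tall) growing in peat/vermiculite medium. After 13–15 d, injury was rated visually against untreated controls on a 0–100 scale (0 = no effect, 100 = complete control).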

[6] = system: chickweed (common chickweed, Stellaria media); experiment: Test C greenhouse herbicide test, postemergence
Summary of the method: as §2

[7] = system: oat, wild (wild oat, Avena fatua); experiment: Test C greenhouse herbicide test, postemergence
Summary of the method: as §2

[8] = system: sedge, umbrella (small-flower umbrella sedge, Cyperus difformis); experiment: Test B flooded paddy test; conditions: 250 g ai/ha, Flood; visual rating on scale of 0 to 100 where 0 is no effect and 100 is complete control; 13 to 15 d after treatment
Summary of the method: (§3)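 Ratings use a 0-100 visual scale, where 100 is complete control, and compare treated plants with controls after 13 to 15 d of greenhouse growth. Compound went straight into paddy water kept 3 cm over the soil surface, applied to seedlings at the 2-leaf stage.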

[9] = system: barnyardgrass (Echinochloa crus-galli); experiment: Test B flooded paddy test; conditions: 250 g ai/ha, Flood; visual rating on scale of 0 to 100 where 0 is no effect and 100 is complete control; 13 to 15 d after treatment
Summary of the method: as §3

rice (Oryza sativa) = experiment: Test B flooded paddy test; conditions: 250 g ai/ha, Flood; visual rating on scale of 0 to 100 where 0 is no effect and 100 is complete control; 13 to 15 d after treatment
Summary of the method: as §3

[10] = system: ducksalad (Heteranthera limosa); experiment: Test B flooded paddy test; conditions: 250 g ai/ha, Flood; visual rating on scale of 0 to 100 where 0 is no effect and 100 is complete control; 13 to 15 d after treatment
Summary of the method: as §3

[11] = Postemergence, 125 g ai/ha, 0 to 100 scale where 0 is no effect and 100 is complete control
[12] = Postemergence, 500 g ai/ha, 0 to 100 scale, 0 is no effect, 100 is complete control
[13] = Preemergence, 125 g ai/ha, 0 to 100 scale where 0 is no effect and 100 is complete control
[14] = Preemergence, 500 g ai/ha, 0 to 100 scale, 0 no effect, 100 complete control
[15] = Preemergence, 500 g ai/ha, 0 to 100 scale where 0 is no effect and 100 is complete control
[16] = Postemergence, 31 g ai/ha, 0 to 100 scale (0 no effect, 100 complete control)
[17] = Postemergence, 125 g ai/ha, scale 0 to 100, 0 is no effect, 100 is complete control
[18] = Postemergence, 250 g ai/ha, scale 0 to 100, 0 no effect, 100 complete control, 13 to 15 d
[19] = postemergence, 62 g ai/ha, scale 0 to 100, 0 no effect, 100 complete control
[20] = Postemergence, 125 g ai/ha, 0 to 100 scale, 0 no effect, 100 complete control
[21] = Postemergence, 500 g ai/ha, visual rating after approx. 10 d, 0 to 100 scale (0 no effect, 100 complete control)
[22] = Preemergence, 125 g ai/ha, visual injury rating, 0 to 100 scale (0 no effect, 100 complete control), approx. 10 d
[23] = Postemergence, 31 g ai/ha, scale 0 to 100 (0 no effect, 100 complete control)
[24] = Postemergence, 62 g ai/ha, 0 to 100 scale (0 no effect, 100 complete control)
[25] = Postemergence, 250 g ai/ha, scale 0 to 100, 0 is no effect, 100 is complete control
[26] = postemergence, 125 g ai/ha, scale 0 to 100, 0 no effect, 100 complete control
[27] = Postemergence, 125 g ai/ha, visual rating after approx. 10 d, 0 to 100 scale (0 no effect, 100 complete control)

## Cc1nn(C)c(=O)c(-c2ccc(Br)c3ccccc23)c1O [Compound 75]
[1]; [11]
  Plant response rating, Barnyardgrass: 0
[1]; [12]
  Barnyardgrass plant response rating: 60
[1]; [13]
  Barnyardgrass plant response rating: 40
[1]; [14]
  Plant response rating, Barnyardgrass: 80
Kochia (Kochia scoparia) [2]; [11]
  Plant response rating, Kochia: 80
Kochia (Kochia scoparia) [2]; [12]
  Kochia plant response rating: 90
Kochia (Kochia scoparia) [2]; [13]
  Kochia plant response rating: 80
Kochia (Kochia scoparia) [2]; [15]
  Plant response rating, Kochia: 90
[3]; [11]
  Plant response rating, Ragweed: 60
[3]; [12]
  Ragweed plant response rating: 90
[3]; [13]
  Ragweed plant response rating: 70
[3]; [15]
  Plant response rating, Ragweed: 90
[4]; [11]
  Plant response rating, Pigweed: 30
[4]; [12]
  Pigweed plant response rating: 50
[4]; [13]
  Pigweed plant response rating: 100
[4]; [15]
  Plant response rating, Pigweed: 100
Kochia (Kochia scoparia) [5]; [16]
  Kochia plant response rating: 90
Kochia (Kochia scoparia) [5]; [17]
  Plant response rating, Kochia: 95
Kochia (Kochia scoparia) [5]; [18]
  Plant response rating, Kochia: 95
Kochia (Kochia scoparia) [5]; [19]
  Kochia plant response rating: 85
[6]; [16]
  Chickweed plant response rating: 95
[6]; [17]
  Plant response rating, Chickweed: 95
[6]; [18]
  Plant response rating, Chickweed: 95
[6]; [19]
  Chickweed plant response rating: 90
[7]; [16]
  Oat, Wild plant response rating: 40
[7]; [17]
  Plant response rating, Oat, Wild: 40
[7]; [18]
  Plant response rating, Oat, Wild: 35
[7]; [19]
  Oat, Wild plant response rating: 35
[8]
  Plant response rating, Sedge, Umbrella: 0
[9]
  Plant response rating, Barnyardgrass: 0
Rice (Oryza sativa)
  Plant response rating, Rice: 15
[10]
  Plant response rating, Ducksalad: 0

## Cc1nn(C)c(=O)c(-c2c([N+](=O)[O-])ccc3ccccc23)c1O [Compound 165]
[1]; [20]
  Plant response rating, Barnyardgrass: 20
[1]; [21]
  Plant response rating, Barnyardgrass: 30
[1]; [22]
  Plant response rating, Barnyardgrass: 10
[1]; [15]
  Plant response rating, Barnyardgrass: 30
Kochia (Kochia scoparia) [2]; [20]
  Plant response rating, Kochia: 60
Kochia (Kochia scoparia) [2]; [21]
  Plant response rating, Kochia: 90
Kochia (Kochia scoparia) [2]; [22]
  Plant response rating, Kochia: 60
Kochia (Kochia scoparia) [2]; [15]
  Plant response rating, Kochia: 100
[3]; [20]
  Plant response rating, Ragweed: 90
[3]; [21]
  Plant response rating, Ragweed: 90
[3]; [22]
  Plant response rating, Ragweed: 50
[3]; [15]
  Plant response rating, Ragweed: 90
[4]; [20]
  Plant response rating, Pigweed: 80
[4]; [21]
  Plant response rating, Pigweed: 80
[4]; [22]
  Plant response rating, Pigweed: 100
[4]; [15]
  Plant response rating, Pigweed: 90
Kochia (Kochia scoparia) [5]; [23]
  Plant response rating, Kochia: 45
Kochia (Kochia scoparia) [5]; [24]
  Kochia plant response rating: 40
Kochia (Kochia scoparia) [5]; [25]
  Plant response rating, Kochia: 90
Kochia (Kochia scoparia) [5]; [26]
  Kochia plant response rating: 85
[6]; [23]
  Plant response rating, Chickweed: 70
[6]; [24]
  Chickweed plant response rating: 90
[6]; [25]
  Plant response rating, Chickweed: 98
[6]; [26]
  Chickweed plant response rating: 95
[7]; [23]
  Plant response rating, Oat, Wild: 40
[7]; [24]
  Oat, Wild plant response rating: 45
[7]; [25]
  Plant response rating, Oat, Wild: 70
[7]; [26]
  Oat, Wild plant response rating: 65
[8]
  Plant response rating, Sedge, Umbrella: 0
[9]
  Plant response rating, Barnyardgrass: 0
Rice (Oryza sativa)
  Plant response rating, Rice: 0
[10]
  Plant response rating, Ducksalad: 0

## Cc1nn(C)c(=O)c(-c2c(C)sc3ccc(Br)cc23)c1O [Compound 22]
[1]; [27]
  Plant response rating, Barnyardgrass: 30
[1]; [12]
  Barnyardgrass plant response rating: 50
[1]; [13]
  Barnyardgrass plant response rating: 10
[1]; [14]
  Plant response rating, Barnyardgrass: 70
Kochia (Kochia scoparia) [2]; [27]
  Plant response rating, Kochia: 100
Kochia (Kochia scoparia) [2]; [12]
  Kochia plant response rating: 100
Kochia (Kochia scoparia) [2]; [13]
  Kochia plant response rating: 70
Kochia (Kochia scoparia) [2]; [14]
  Plant response rating, Kochia: 100
[3]; [27]
  Plant response rating, Ragweed: 90
[3]; [12]
  Ragweed plant response rating: 100
[3]; [13]
  Ragweed plant response rating: 90
[3]; [14]
  Plant response rating, Ragweed: 90
[4]; [27]
  Plant response rating, Pigweed: 100
[4]; [12]
  Pigweed plant response rating: 100
[4]; [13]
  Pigweed plant response rating: 100
[4]; [14]
  Plant response rating, Pigweed: 100
Kochia (Kochia scoparia) [5]; [16]
  Kochia plant response rating: 90
Kochia (Kochia scoparia) [5]; [17]
  Plant response rating, Kochia: 95
Kochia (Kochia scoparia) [5]; [18]
  Plant response rating, Kochia: 95
Kochia (Kochia scoparia) [5]; [19]
  Kochia plant response rating: 95
[6]; [16]
  Chickweed plant response rating: 90
[6]; [17]
  Plant response rating, Chickweed: 95
[6]; [18]
  Plant response rating, Chickweed: 98
[6]; [19]
  Chickweed plant response rating: 90
[7]; [16]
  Oat, Wild plant response rating: 40
[7]; [17]
  Plant response rating, Oat, Wild: 80
[7]; [18]
  Plant response rating, Oat, Wild: 80
[7]; [19]
  Oat, Wild plant response rating: 50
[8]
  Plant response rating, Sedge, Umbrella: 0
[9]
  Plant response rating, Barnyardgrass: 0
Rice (Oryza sativa)
  Plant response rating, Rice: 0
[10]
  Plant response rating, Ducksalad: 0

## CC(=O)Oc1c(C)nn(C)c(=O)c1-c1c(C)cc(C)c2ccccc12 [Compound 99]
[1]; [11]
  Plant response rating, Barnyardgrass: 20
[1]; [12]
  Barnyardgrass plant response rating: 90
[1]; [13]
  Barnyardgrass plant response rating: 60
[1]; [15]
  Plant response rating, Barnyardgrass: 90
Kochia (Kochia scoparia) [2]; [11]
  Plant response rating, Kochia: 30
Kochia (Kochia scoparia) [2]; [21]
  Plant response rating, Kochia: 70
Kochia (Kochia scoparia) [2]; [13]
  Kochia plant response rating: 20
Kochia (Kochia scoparia) [2]; [15]
  Plant response rating, Kochia: 70
[3]; [11]
  Plant response rating, Ragweed: 100
[3]; [21]
  Plant response rating, Ragweed: 100
[3]; [13]
  Ragweed plant response rating: 80
[3]; [15]
  Plant response rating, Ragweed: 80
[4]; [11]
  Plant response rating, Pigweed: 70
[4]; [21]
  Plant response rating, Pigweed: 90
[4]; [13]
  Pigweed plant response rating: 100
[4]; [15]
  Plant response rating, Pigweed: 100
Kochia (Kochia scoparia) [5]; [17]
  Plant response rating, Kochia: 90
Kochia (Kochia scoparia) [5]; [18]
  Plant response rating, Kochia: 95
Kochia (Kochia scoparia) [5]; [19]
  Kochia plant response rating: 85
[6]; [16]
  Chickweed plant response rating: 90
[6]; [17]
  Plant response rating, Chickweed: 90
[6]; [18]
  Plant response rating, Chickweed: 90
[6]; [19]
  Chickweed plant response rating: 90
[7]; [17]
  Plant response rating, Oat, Wild: 90
[7]; [18]
  Plant response rating, Oat, Wild: 95
[7]; [19]
  Oat, Wild plant response rating: 70
[8]
  Plant response rating, Sedge, Umbrella: 0
[9]
  Plant response rating, Barnyardgrass: 0
Rice (Oryza sativa)
  Plant response rating, Rice: 0
[10]
  Plant response rating, Ducksalad: 0
